We go through 1 compound from publication PMC8691750, “Euphorbia Factor L2 ameliorates the Progression of K/BxN Serum-Induced Arthritis by Blocking TLR7 Mediated IRAK4/IKKβ/IRF5 and NF-kB Signaling Pathways” (Frontiers in Pharmacology, 2021).

The subject of series [1] is TLR7 (R837) / TLR3 (poly:IC) induced cytokine production in RAW264.7 cells. Description: ELISA of IL-1β and IL-6 in supernatant of R837 and/or poly:IC stimulated RAW264.7 cells. In kind it is cell-based, mouse. As for the experimental part: RAW264.7 cells (5×10^5/ml), BMDMs (5×10^5/ml) and PBMCs (2×10^6/ml) were plated in 96-well plates and incubated overnight. […] For the anti-inflammatory molecular mechanism study, RAW264.7 cells (5×10^5/ml) were plated in 96-well plates and stimulated with R837 (20 μg/ml) with or without the addition of NF-κB inhibitor (JSH-23, […]) for 24 h. After 24 h, the culture supernatant was collected for cytokines measurements.
IL-4, IL-17A and TNF-α in sera from different group mice were measured using CBA Multiplex kit (BD, United States). The concentrations of IL-1β and IL-6 in serum or supernatant were detected by ELISA Kit (MULTI SCIENCES, China) according to the manufacturers’ instructions.

Series [2] concerns lung cancer cell line A549. Further details: method as in Lin et al., 2017. The settings on record: in vitro, dose-dependent; ref Lin et al., 2017; cited from earlier work.
Series [3] has as its system bone marrow-derived macrophages (BMDMs). The series is described as follows: Cell viability, CCK8 assay, BMDMs. The class given is cell-based, C57BL/6 mice. The settings on record: CCK8, 0.1-100 μM, 20 h. As for the experimental part:
(§1) RAW264.7 cells, a mouse macrophage cell line, were cultured in DMEM medium containing 10% fetal bovine serum (FBS), 1% penicillin-streptomycin and maintained at 37 °C in 5% CO2 humidified air. Bone marrow-derived macrophages (BMDMs) generation was performed as following description. In brief, bone marrow cells were harvested from tibias and femurs of C57BL/6 mice and differentiated for 7 days in DMEM medium supplemented with 10% FBS, 1% penicillin-streptomycin and 50 ng/ml M-CSF. For human peripheral blood mononuclear cells (PBMCs) preparation, 5 ml peripheral venous blood was obtained from healthy donors in West China Hospital. PBMCs were isolated with Human Lymphocyte Separation Medium (LTS1077, Tian Jing, China) according to the manufacturer’s instructions. The experimental protocols were performed according to the approved guidelines established by the Institutional Human Research Subject Protection Committee of the Ethics Committee of West China Hospital, Sichuan University, China.
(§2) The effects of EFL2 on RAW264.7 cells, BMDMs and PBMCs viability were evaluated by Cell Counting Kit-8 (CCK8) assay (Dojindo, Japan). […] The optical absorbance at 450 nm was read with a Biotek Eon™ microplate reader (Biotek, Vermont, United States).
In general terms: Formazan colour is commonly taken as a measure of viable cells.

The subject of another series is PBMCs. The series is described as follows: Cell viability, CCK8 assay, PBMCs. The conditions noted are these: CCK8, at 100 μM. In kind it is cell-based, human. As to the method: as §1, §2
Series [4] has as its system synovial hyperplasia and articular inflammatory cells infiltration in knee joints. Description: Histological assessment (H&E) of knee joints of STA mice. In kind it is in vivo, C57BL/6 mice. As for the experimental part:
K/BxN serum was collected from K/BxN mice at 8 weeks of age, pooled, aliquoted and stored at -20 °C. K/BxN serum-transfer arthritis (STA) model was induced by intraperitoneal (i.p.) application of 150 μL of serum at day 0. Clinical score for arthritis severity was assessed using a 0–4 point scale for each paw at various time points (0–16 total score) as described previously ([Luo et al., 2011]). 8-week old male C57BL/6 mice were purchased from Dashuo Animal Center (China, Chengdu), maintained at 25°C, and exposed to 12-h light and dark cycles. Mice were fed with standard laboratory chow and water with 1 week of acclimatization. Naive mice were used as the control group. Except the control mice, all mice were i. p. injected with 150 μL of serum, then randomly divided into the following groups and treated with different compounds daily for the consecutive 8 days: 1) STA group; 2) Solvent control group, mice were gavaged with the solvent; 3) Dexamethasone (DEX) group, mice were gavaged with 30 mg/kg DEX; 4) EFL2 group 1, mice were gavaged with 40 mg/kg EFL2; 5) EFL2 group 2, mice were intraperitoneally injected with 15 mg/kg EFL2; 6) EFL2 group 3, […] were intraperitoneally injected with 40 mg/kg EFL2. […] All animal experiments were conducted in accordance with ethical regulation for animal care and use in China.
The left knee joints were removed on day 13 post STA and fixed in 4% formaldehyde overnight at 4°C. The tissues were decalcified in EDTA and sectioned after embedding in paraffin. 5 μm sections were deparaffinized with xylene, re-hydrated with 100, 95 and 80% ethanol and then stained with hematoxylin and eosin (H&E). Histopathological changes in the knee joints were measured using a semiquantitative scoring system (0–4 scale) to assess synovial hyperplasia and articular inflammatory cells infiltration as previously described ([Yamanishi et al., 2002]).

For series [5], the system named is IL-1β and IL-6 in the ankle. Description: Immunochemistry staining for IL-1β and IL-6 in ankles. In kind it is in vivo, C57BL/6 mice. The settings on record: STA mice; EFL2 15 or 40 mg/kg. As for the experimental part:
The dissected left ankles were fixed in 4% formaldehyde overnight. Embedding, de-paraffinization, and re-hydration of the ankle sections were the same as described for H&E staining. After treated with 3% […] for 10 min, the tissue sections were immersed in a 10 mM sodium citrate buffer (pH 6.0) for 15 min at 95°C, and washed with PBS. The sections were then blocked with 5% goat serum in PBS, and incubated with primary antibodies overnight at 4°C. Primary antibodies were as follows: rabbit anti-mouse IL-1β (1:600, Abcam, China); rabbit anti-mouse IL-6 (1:50, Abcam, China). The signal was visualized using an Envision System (DAKO, United States). The images were then acquired by microscopy (Leica DMil).

For the compound `C=C1C(OC(=O)c2ccccc2)CC2C(C=C(C)C(=O)C3(OC(C)=O)CC(C)C(OC(=O)c4ccccc4)C3C1OC(C)=O)C2(C)C` (stereo not shown) [EFL2, Euphorbia factor L2], the “inhibitory ability on IL-1β and IL-6 production compared to JSH-23” value in series [1] (R837-stimulated RAW264.7, EFL2 10 μM) was “stronger inhibitory ability”. Also, the IL-6 production entry in series [1] (R837-stimulated RAW264.7, EFL2 0.1-10 μM) is reported as “dose-dependently reduced”. Further, the IL-1β secretion result in series [1] (R837-stimulated RAW264.7, EFL2 at 0.1 μM) is “effectively inhibit”. Further, in series [1] (RAW264.7 co-stimulated by poly (I:C) and R837, various concentrations of EFL2), the “levels of IL-1β and IL-6 in the supernatant” value was “to different expent decreased”. Besides, in series [2], the “apoptosis of A549 cells” value is on record as “induced the apoptosis”. In addition, in series [3], the “concentration at which significant cytotoxicity is displayed” value is at least 25 µM. In the series on PBMCs, the PBMCs viability result was “did not affect”. Further, the “inflammatory cells infiltration and synovium hyperplasia in joints” value in series [4] (EFL2 15 mg/kg i.p.) is on record as “only partially reduced”. In addition, in series [4] (EFL2 40 mg/kg i.p.), the “inflammatory status and inflamed synovium in joints” value is given as “significantly inhibited”. Moreover, the “IL-1β and IL-6 production in local inflamed joints (immunohistochemical staining)” value in series [5] was “could inhibit”.
